Measured values taken from patent US9994554B2, “Barbiturate and thiobarbiturate compounds for use in cancer therapy” (NUHOPE, LLC, priority 2011, dated 2018).
Values joined by “and” are separate entries in the source; they are usually repeats but may differ in a detail not shown here. Equal values may be shown once. Read-outs that look alike come from different tables or passages of the source. *1 amine or outer side, *2 acyl side, *3 side chain or, on linkers, in order; H or OH if unused. Where a SMILES comes first, the peptide text is derived from it. Bridges are numbered along the chain shown (N, C = ends). Roman numbers before positions name the chains, in order. [ ]: non-standard residue; d: D form. Actinocin(9to1) = Cc1c2oc3c(C)ccc(C(=O)[*:1])c3nc-2c(C(=O)[*:2])c(N)c1=O; NMeV = CN[C@H](C(=O)O)C(C)C; Sar = CNCC(=O)O

Experiments:
[1] = system: U87-MG cells; experiment: U87-MG resazurin cell assay (Example 13); format: cell-based; details: Homo sapiens, U-87 MG
Protocol: U87-MG cells were obtained from the ATCC, LGC Standards (#HTB-14). The cells were screened for mycoplasma (Mycoplasma Experience) and maintained in Biowhittaker Alpha MEM (Lonza #BE02-002F+10% dialyzed US FBS serum (Invitrogen #26400-044), 1% Penstrep (Gibco #15140-122).
Compounds to be tested were transferred into column 1 of a hit plate (96-well PPV Greiner #651201). 20 ul of DMSO was added to columns 2 to 11. The top concentration was 10 mM.
Serial dilution, ten-point one in three dilution curves were created using Perkin Elmer Janus (20 ul clear Robopack disposable tips #6000677 used).
2 ul of each of the compounds was transferred by pre-dispensing into black, clear bottom 96-well CellBIND Corning plates (Fisher #DPS-184-030R) using Platemate 2×2 (ThermoFisher Darts #5506).
200 μl of U87-MG cells were added to columns 1 to 11 at a density of 1000 cells per ml, and media only was dispensed into control column 12 using Wellmate (Small bore tubing set #201-30002).
After 5 days (120 hrs) incubation at 37° C. under 5% CO2 in a humidified incubator, the assay was “stopped” by addition of Resazurin sodium salt at 0.5 mM final concentration (Sigma R7017). The plates were incubated for a further 4 hrs before resorufin readout was taken from a Perkin Elmer EnVision, 550 nm excitation (photo550, Barcode 312), 580 nm emission (M580, Barcode 233), Top Mirror BODIPY (D555, Barcode 405).

[2] = system: NCI-H1299; experiment: NCI-H1299 resazurin cell assay (Example 14); format: cell-based; details: Homo sapiens, read-out: Lung - Non small cell lung carcinoma NCI-H1299 pXC50 (converted)
Protocol: (§1) In this assay, cell lines were tested broadly using the same method as the U87 cell line assay of Example 13. NCI-H1299, CCF-STTG1 and Hep G2 cells were obtained from the ATCC. These cell lines were tested as previously described with the following modifications. NCI-H1299, CCF-STTG1 were maintained in RPMI-1640 Medium plus 10% fetal bovine serum and 1% penicillin/streptomycin, while Hep G2 cells were maintained in Eagle's Minimum Essential Medium plus 10% fetal bovine serum and 1% penicillin/streptomycin. Cells were plated at a density of 1×10^4 per ml except CFF-STTG1 cells which were seeded at a density of 2.5×10^4 per ml.

[3] = system: Hep G2; experiment: Hep G2 resazurin cell assay (Example 14); format: cell-based; details: Homo sapiens, HepG2; read-out: Liver - Hepatocellular carcinoma Hep G2 pXC50 (converted)
Protocol: as §1

[4] = system: CCF-STTG1; experiment: CCF-STTG1 resazurin cell assay (Example 14); format: cell-based; details: Homo sapiens, read-out: Brain - Astrocytoma CCF-STTG1 pXC50 (converted)
Protocol: as §1

[5] = system: SW1088; experiment: Cytotoxicity (MTS or SRB assay), SW1088; format: cell-based, human
Protocol: Human glioma cells were ordered from American Type Culture Collection (ATCC, Manassas, Va.), and maintained in DMEM with 4×10^−3M L-glutamine, 100 U/ml penicillin, 100 μg/ml streptomycin, and 10% fetal bovine serum (FBS). All experiments were performed at 37° C. in 5% CO2 atmosphere under cell culture conditions. […] Then cells received different dosages of γ-radiation from a ^60Co source GammaCell 220 (Nordion International Inc, Ontario, Canada) or chemotherapeutic agents for another 2-6 days. Cell cytotoxicity assay was determined by MTS [3-(4,5-dimethylthiazol-2-yl)-5-(3-carboxymethoxyphenyl)-2-(4-sulfophenyl)-2H-tetrazolium, inner salt] Cell Proliferation Assay (Promega, Madison, Wis.) or sulforhodamine B (SRB) assay at the end of the exposure period (47, 48).

[6] = system: U87-MG; experiment: cells; details: Homo sapiens, U-87 MG, read-out: IC50 (μM) U87-MG
Protocol: (§2) Human neuroblastoma cell lines were cultured in Dulbecco's Modified Eagle Medium (DMEM)/F12 media. Human glioma cells were ordered from American Type Culture Collection (ATCC, Manassas, Va.), and maintained in DMEM with 4×10^−3M L-glutamine, 100 U/ml penicillin, 100 μg/ml streptomycin, and 10% fetal bovine serum (FBS). All experiments were performed at 37° C. in 5% CO2 atmosphere under cell culture conditions. Prior to γ-radiation or exposure to chemotherapeutic agents, the glioma cells were plated at a density of 156 to 8,000 cells per well in 96 well plates to account for differences in growth rates, and to obtain similar cell densities for the experimental manipulations, and cultured overnight. Then cells received different dosages of γ-radiation from a ^60Co source GammaCell 220 (Nordion International Inc, Ontario, Canada) or chemotherapeutic agents for another 2-6 days. Cell cytotoxicity assay was determined by MTS [3-(4,5-dimethylthiazol-2-yl)-5-(3-carboxymethoxyphenyl)-2-(4-sulfophenyl)-2H-tetrazolium, inner salt] Cell Proliferation Assay (Promega, Madison, Wis.) or sulforhodamine B (SRB) assay at the end of the exposure period (47, 48).
(§3) Chemotype moiety compounds of CC-I were also tested on the Temodar-resistant CCF-STTG1 and Temodar®-sensitive U87-MG cell lines. The glioma cell culture and treatment is as described above.
(§4) The human glioma CCF-STTG1 cell lines were plated at a density of 5,000 cells per well in 96 well plates under standard DMEM cell culture conditions and then exposed to different concentrations of CC-I, merbarone, or ICRF-193 for 5 days. Merbarone and ICRF-193 are both topoisomerase II inhibitors (55, 56).

[7] = system: U251; experiment: Cytotoxicity (MTS or SRB assay), U251; format: cell-based; details: U-251; human astrocytoma or glioblastoma cell line
Protocol: (§5) Human neuroblastoma cell lines were cultured in Dulbecco's Modified Eagle Medium (DMEM)/F12 media. Human glioma cells were ordered from American Type Culture Collection (ATCC, Manassas, Va.), and maintained in DMEM with 4×10^−3M L-glutamine, 100 U/ml penicillin, 100 μg/ml streptomycin, and 10% fetal bovine serum (FBS). All experiments were performed at 37° C. in 5% CO2 atmosphere under cell culture conditions. Prior to γ-radiation or exposure to chemotherapeutic agents, the glioma cells were plated at a density of 156 to 8,000 cells per well in 96 well plates to account for differences in growth rates, and to obtain similar cell densities for the experimental manipulations, and cultured overnight. […] Cell cytotoxicity assay was determined by MTS [3-(4,5-dimethylthiazol-2-yl)-5-(3-carboxymethoxyphenyl)-2-(4-sulfophenyl)-2H-tetrazolium, inner salt] Cell Proliferation Assay (Promega, Madison, Wis.) or sulforhodamine B (SRB) assay at the end of the exposure period (47, 48).

[8] = system: CCF-STTG1; experiment: cells; details: for IC50: Homo sapiens, CCF-STTG1, read-out: IC50 (μM) CCF-STTG1
Protocol: as §2
Temodar®-resistant cell lines were used to screen for compounds having the ability to decelerate the growth of, or kill, Temodar®-resistant cells. The efficacy of over 15,000 different compounds in the Drug Discovery Core at Pennsylvania State Hershey Medical Center was tested on Temodar®-resistant human neuroblastoma SH-SY5Y and human glioma CCF-STTG1 cell lines with a colorimetric cytotoxicity assay, the sulforhodamine B (SRB) assay (53).
as §3, §4

[9] = system: WT/SH-SY5Y; experiment: Cytotoxicity, WT/SH-SY5Y neuroblastoma; format: cell-based; details: wild type HFE transfected human neuroblastoma SH-SY5Y
Protocol: as §5

[10] = system: C282Y/SH-SY5Y; experiment: cells; format: cell-based; details: C282Y HFE transfected human neuroblastoma SH-SY5Y
Protocol: as §5

[11] = system: MCF10A; experiment: Cytotoxicity, MCF10A; format: cell-based, human; details: Homo sapiens, MCF-10A; immortalized, non-transformed mammary epithelial cell line
[12] = system: MCF7; experiment: Cytotoxicity, MCF7; format: cell-based; details: MCF7; human breast adenocarcinoma cell line
Protocol: as §5

[13] = system: SVGp12; experiment: Cytotoxicity, SVGp12; format: cell-based; details: SVGp12; SV40 transformed human astrocyte cell line
Protocol: as §5

[14] = system: OVCAR-3; experiment: Cytotoxicity, ovarian cancer cells; format: cell-based; details: OVCAR-3; human ovarian carcinoma cell line
Protocol: To assess the effect of CC-I on the ovarian cancer cells, the cells were cultured overnight at a density of 5,000 to 10,000 cells per well in 96 well plates. Then the cells were treated with different concentrations of CC-I (Formula IV) or Formula V for another 3-6 days before cytotoxicity assay using MTS or SRB assay. The IC50 or LD50, 50% inhibition or lethal dose, of compounds is also determined using statistical software (GraphPad) as a general indicator of toxicity.

[15] = system: CCF-STTG1 cells; experiment: FITC-Annexin V/propidium iodide apoptosis assay; format: cell-based, human; details: CCF-STTG1, at 0.05 μg/ml (39.8 nM)
Protocol: An FITC-labeled Annexin V/propidium iodide apoptosis assay kit (Molecular Probes) was used to determine whether CC-I induces apoptosis in an astrocytoma cell line. […] The percentage of apoptotic cells by the CC-I treatment in CCF-STTG1 cells is from 10.9±0.16% at 5 pig/ml ([…]) to 48.7±0.33% at 10 μg/ml (36.2 μM). By comparison, the positive control, actinomycin D, induced apoptosis in 47.8±0.04% of the cells at 0.05 μg/ml (39.8 nM).

[16] = U87-MG, 5 days (120 hrs) incubation, read-out: Activity Score (Mean pXC50) (converted)
[17] = read-out: Brain - Glioblastoma U87 pXC50 (converted)

| SMILES | IC50 [1, 16] [µM] | IC50 [1, 17] [µM] | IC50 [2] [µM] | IC50 [3] [µM] | IC50 [4] [µM] | other results |
| --- | --- | --- | --- | --- | --- | --- |
| O=C1NC(=O)C(=C/C=C/c2ccco2)C(=O)N1 [DDD00124807] | 10 to 31.6 | 10 to 31.6 | 1 to 10 | 10 to 31.6 | 10 to 31.6 | – |
| CCN1C(=O)C(=C/C=C/c2ccccc2)C(=O)N(CC)C1=S [DDD00124821] | 31.6 to 100 | 31.6 to 100 | 10 to 31.6 | > 100 | 10 to 31.6 | – |
| CCN1C(=O)NC(=O)/C(=C\C=C\c2ccco2)C1=O [DDD00124808] | 10 to 31.6 | 10 to 31.6 | 1 to 10 | 10 to 31.6 | 10 to 31.6 | – |
| CCN1C(=O)C(=C/C=C/c2ccccc2)C(=O)N(CC)C1=O [DDD00125643] | 1 to 10 | 1 to 10 | – | 10 to 31.6 | 1 to 10 | – |
| CCN1C(=O)NC(=O)/C(=C\C=C\c2ccccc2)C1=O [DDD00124809] | 1 to 10 | 1 to 10 | – | 1 to 10 | 1 to 10 | – |
| Cn1nnc2c(C(N)=O)ncn2c1=O [Temodar ®, Temozolomide, reference compound] | – | 10 to 31.6 | > 100 | > 100 | > 100 | IC50 ([5]; SW1088, human astrocytoma or glioblastoma cell line, read-out: IC50 (μM) SW1088): 29.5 µM; IC50 [6]: 13.6 µM; IC50 [7]: 47.2 µM; IC50 [8]: 306 µM; IC50 [9]: 103 µM; IC50 [10]: 92 µM |
| O=C1NC(=S)NC(=O)C1=C/C=C/c1ccco1 [DDD00124818] | 10 to 31.6 | 10 to 31.6 | 1 to 10 | > 100 | 10 to 31.6 | – |
| O=C1NC(=S)NC(=O)C1=C/C=C/c1ccccc1 [Formula V] | – | – | – | – | – | IC50 ([5]; Homo sapiens, SW1088, read-out: IC50 (μM) SW1088): 1.2 µM; LD50 ([5]; SW-1088 astrocytoma cells): 0.3 μg/ml and 1.2 μM; IC50 [6]: 1.8 µM; IC50 [7]: 2.5 µM; IC50 [8]: 3 µM; cytotoxicity to CCF-STTG1 cell lines (in words) ([8]; Temodar-resistant CCF-STTG1): greatest toxicity; IC50 [11]: 1.7 µM; IC50 [12]: 3.2 µM; IC50 [13]: 1.6 µM; IC50 [14]: 4.3 µM |
| CCN1C(=O)C(=C/C=C/c2ccco2)C(=O)N(CC)C1=O [DDD00124802] | 10 to 31.6 | 31.6 to 100 | 1 to 10 | 10 to 31.6 | 31.6 to 100 | – |
| Cc1c2oc3c(C)ccc(C(=O)N[C@@H]4C(=O)N[C@H](C(C)C)C(=O)N5CCC[C@H]5C(=O)N(C)CC(=O)N(C)[C@@H](C(C)C)C(=O)O[C@@H]4C)c3nc-2c(C(=O)N[C@@H]2C(=O)N[C@H](C(C)C)C(=O)N3CCC[C@H]3C(=O)N(C)CC(=O)N(C)[C@@H](C(C)C)C(=O)O[C@@H]2C)c(N)c1=O [actinomycin D, reference compound] (I: T[dV]P[Sar][NMeV] / II: T[dV]P[Sar][NMeV]; ester I:1-I:C, II:1-II:C; linker I:N-II:N via Actinocin(9to1)) | – | – | – | – | – | percentage of apoptotic cells [15]: 47.8±0.04% |
| O=C1NC(=O)C(=Cc2c[nH]c3ccccc23)C(=O)N1 [DDD00175790] | > 100 | – | – | – | – | – |
| CCN1C(=O)NC(=O)/C(=C\C=C\c2ccc(C)cc2)C1=O [DDD00175801] | 1 to 10 | – | – | – | – | – |
| O=C1NC(=O)C(=C/C=C/c2ccc(Cl)cc2)C(=O)N1 [DDD00175286] | ≤ 1 | – | – | – | – | – |
| CCN1C(=O)/C(=C\C=C\c2ccco2)C(=O)N(C2CCOCC2)C1=O [DDD00175792] | 10 to 31.6 | – | – | – | – | – |
| COc1ccc(/C=C/C=C2C(=O)NC(=S)NC2=O)cc1 [DDD00175805] | 1 to 10 | – | – | – | – | – |
| COc1cccc(C=C2C(=O)NC(=O)NC2=O)c1 [DDD00175827] | > 100 | – | – | – | – | – |
| Cc1ccccc1/C=C/C=C1C(=O)NC(=S)NC1=O [DDD00197329] | 1 to 10 | – | – | – | – | – |
